The NIST ThermoML archive (doi:10.1016/j.fluid.2006.07.016)
Numbers after ± are expanded uncertainties.

Key:
[1] = refractive index (Na D-line) (dimensionless); conditions: 298.2 K; 101.33 kPa; Liquid; Standard Abbe refractometry
[2] = 298.2 K; 101.33 kPa; Liquid

Compound | refractive index [1] | mass density [2]
CCCO [propan-1-ol] | 1.3839 ± 0.0007 | 799.7 ± 0.5 kg/m3
CCCOC(C)=O [propyl ethanoate] | 1.3828 ± 0.0007 | 882.5 ± 0.4 kg/m3
